The test concerns LL/2 lung cancer tumor endothelial cells. Briefly: Lung LL2 ex vivo model of tumor angiogenesis. It counts as cell-based, mouse. As to conditions: for 48 hrs (morphology observations): LL/2 tumor endothelial cells; for Cell death: drug treatment for two days, ratio of red area to total endothelial cell area; for cytotoxicity at 10 µM / cytotoxicity at 40 µM / cytotoxicity at 20 µM: Mus musculus, Endothelial cell, 48 h, read-out: Cell death. The method, boiled down: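 LL2 mouse tumor fragments (~0.075 mm³) embedded in Matrigel and cultured in endothelial growth medium at 37 °C until endothelial outgrowth (~4 days) before treatment. Cell death assessed e.g. 48 h after drug by fluorescein diacetate (live)/propidium iodide (dead) staining and red/green fluorescence imaging.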

For the molecule `CCOC(=O)c1ccc2ncc(S(=O)(=O)c3ccc(OC)cc3)c(-n3cncn3)c2c1` [Compound 183], under “10 μm”, the “48 hrs (morphology observations)” value is “**** (100% of endothelial cells vesicularize in cell shape and look flattened in morphology (indicating disintegration of the cell body))”; the Cell death was found to be 100%.

For `CCCCCCCCCCOc1ccc(S(=O)(=O)c2cnc3ccc([S+](C)[O-])cc3c2N2CCN(C3CCN(CC)CC3)CC2)cc1` (stereo not shown) [Compound 283], the cytotoxicity at 10 µM was determined as 5%. The “48 hrs (morphology observations)” value (10 μm) amounted to 0.

For the molecule `COc1ccc(S(=O)(=O)c2cnc3cc(OC)c(OC)cc3c2N2CCC(N3CCCCC3)CC2)cc1OC` [Compound 122], for the setting “20 μm”, the “48 hrs (morphology observations)” value stood at 0 and the Cell death is on record as 10%.

As for `CCN(CC)CCCN1CCN(c2c(S(=O)(=O)c3ccc(OC)cc3)cnc3cc(OC)c(OC)cc23)CC1` [Compound 302], under “40 μm”, the “48 hrs (morphology observations)” value worked out at 0 and the Cell death is 70%.

Consider `COc1ccc(S(=O)(=O)c2cnc3cc(OC)c(OC)cc3c2N2CCCN(c3nc4ccc(Cl)cc4s3)CC2)cc1` [Compound 327], for which the cytotoxicity at 40 µM worked out at 20%. Besides, the “48 hrs (morphology observations)” value (40 μm) turned out to be 0.

In the case of `CCCCCCCOc1ccc(S(=O)(=O)c2cnc3ccc([S+](C)[O-])cc3c2N2CCN(C3CCN(Cc4ccccc4)C3)CC2)cc1` (stereo not shown) [Compound 278], where the note is “10 μm”, the “48 hrs (morphology observations)” value is recorded as “* (50% or less of cells vesicularize in cell shape)” and the Cell death was determined as 50%.

Turning to `CCc1ccc(S(=O)(=O)c2cnc3ccc(OC(F)(F)F)cc3c2-n2cnnn2)cc1` [Compound 125], the cytotoxicity at 20 µM turned out to be 10%. The “48 hrs (morphology observations)” value (20 μm) was “* (50% or less of cells vesicularize in cell shape)”.

On to `CCCCCCCOc1ccc(S(=O)(=O)c2cnc3ccc([S+](C)[O-])cc3c2N2CCN(CC3CCN(Cc4ccccc4)CC3)CC2)cc1` (stereo not shown) [Compound 279], for which, under “20 μm”, the “48 hrs (morphology observations)” value is “**** (100% of endothelial cells vesicularize in cell shape and look flattened in morphology (indicating disintegration of the cell body))”; the Cell death is listed as 100%.

`CCCCOc1ccc(S(=O)(=O)c2cnc3ccc(C(=O)OCC)cc3c2N2CCC(N3CCC(CO)CC3)CC2)cc1` [Compound 178]: where the note is “40 μm”, the “48 hrs (morphology observations)” value is “**** (100% of endothelial cells vesicularize in cell shape and look flattened in morphology (indicating disintegration of the cell body))”; the Cell death was found to be 100%.

Take `CCCCCCCCCCCCCCOc1ccc(S(=O)(=O)c2cnc3ccc([S+](C)[O-])cc3c2N2CCC(N3CCC(N4CCN(C)CC4)CC3)CC2)cc1F` (stereo not shown) [Compound 371]: where the note is “20 μm”, the “48 hrs (morphology observations)” value was “*** (more than 50% but less than 100% of endothelial cells vesicularize in cell shape)” and the Cell death came to 30%.

With `CCCCOc1ccc(S(=O)(=O)c2cnc3ccc(C(=O)NCCO)cc3c2N2CCCN(C)CC2)cc1` [Compound 200], the cytotoxicity at 40 µM was 30%. For the same molecule, the “48 hrs (morphology observations)” value (40 μm) was determined as 0.

Regarding `CCOC(=O)c1ccc2ncc(S(=O)(=O)c3ccc(OC)cc3)c(-n3nnc4ccccc43)c2c1` [Compound 142], the “48 hrs (morphology observations)” value (20 μm) was “**** (100% of endothelial cells vesicularize in cell shape and look flattened in morphology (indicating disintegration of the cell body))”.

Regarding `CCc1ccc(S(=O)(=O)c2cnc3ccc(OC(F)(F)F)cc3c2NN2CCCCC2)cc1` [Compound 105], under “20 μm”, the “48 hrs (morphology observations)” value was found to be 0 and the Cell death is listed as 0%.

Take `COc1ccc(S(=O)(=O)c2cnc3ccc(C(=O)N(C)C)cc3c2N2CCCN(CC(=O)N(C)C)CC2)cc1` [Compound 333]: under “40 μm”, the “48 hrs (morphology observations)” value is on record as 0 and the Cell death worked out at 0%.

As to `CCCCOc1ccc(S(=O)(=O)c2cnc3ccc(SC)cc3c2N2CCCN(c3nc4ccc(Cl)cc4s3)CC2)cc1` [Compound 356], the cytotoxicity at 40 µM is 0%. Besides, where the note is “40 μm”, the “48 hrs (morphology observations)” value stood at 0.

Take `CCCCCCCOc1ccc(S(=O)(=O)c2cnc3ccc(SC)cc3c2N2CCC(N3CCC(N4CCCCC4)CC3)CC2)cc1` [Compound 251]: where the note is “20 μm”, the “48 hrs (morphology observations)” value is given as “*** (more than 50% but less than 100% of endothelial cells vesicularize in cell shape)” and the Cell death is reported as 60%.

Consider `CCCCOc1ccc(S(=O)(=O)c2cnc3ccc(S(C)(=O)=O)cc3c2N2CCC(N3CCCCC3)CC2)cc1` [Compound 169], for which, where the note is “20 μm”, the “48 hrs (morphology observations)” value is recorded as 0 and the Cell death came out at 40%.

`COc1ccc(S(=O)(=O)c2cnc3cc(OC)c(OC)cc3c2N2CCC(O)(c3ccccc3)CC2)cc1` [Compound 308]: under “40 μm”, the “48 hrs (morphology observations)” value is on record as 0 and the Cell death is 20%.

`COc1ccc(C2CCN(c3c(S(=O)(=O)c4ccc(OC)cc4)cnc4cc(OC)c(OC)cc34)CC2)cc1` [Compound 311]: for the setting “40 μm”, the “48 hrs (morphology observations)” value is listed as 0 and the Cell death turned out to be 30%.

As for `CCCCCCCOc1ccc(S(=O)(=O)c2cnc3ccc(SC)cc3c2N2CCC(N3CCN(C)CC3)CC2)cc1` [Compound 246], for the setting “20 μm”, the “48 hrs (morphology observations)” value is “*** (more than 50% but less than 100% of endothelial cells vesicularize in cell shape)” and the Cell death amounted to 95%.

As to `CCCCCCCCCCCCCCCCOc1ccc(S(=O)(=O)c2cnc3ccc([S+](C)[O-])cc3c2N2CCC(N3CCN(CCO)CC3)CC2)cc1` (stereo not shown) [Compound 376], where the note is “20 μm”, the “48 hrs (morphology observations)” value came out at 0 and the Cell death turned out to be 10%.

For `CCCCCCCCCCCCOc1ccc(S(=O)(=O)c2cnc3ccc([S+](C)[O-])cc3c2N2CCC(N3CCN(CCO)CC3)CC2)cc1` (stereo not shown) [Compound 344], the cytotoxicity at 20 µM was 10%. In addition, the “48 hrs (morphology observations)” value (20 μm) was “* (50% or less of cells vesicularize in cell shape)”.

For the molecule `CCCCCCCCCCCCCCOc1ccc(S(=O)(=O)c2cnc3ccc([S+](C)[O-])cc3c2N2CCC(N3CCC(N4CCN(CCO)CC4)CC3)CC2)cc1` (stereo not shown) [Compound 345], for the setting “20 μm”, the “48 hrs (morphology observations)” value is listed as “*** (more than 50% but less than 100% of endothelial cells vesicularize in cell shape)” and the Cell death is given as 50%.

As for `CCCCCCCCCCCCCCOc1ccc(S(=O)(=O)c2cnc3ccc([S+](C)[O-])cc3c2N2CCC(N3CCN(CCO)CC3)CC2)cc1` (stereo not shown) [Compound 339], the cytotoxicity at 20 µM turned out to be 50%.

As for `CCCCOc1ccc(S(=O)(=O)c2cnc3ccc(SC)cc3c2N2CCCN(CC3(O)CCCC3)CC2)cc1` [Compound 354], the cytotoxicity at 40 µM worked out at 0%. The “48 hrs (morphology observations)” value (40 μm) worked out at 0.

For `COc1ccc(S(=O)(=O)c2cnc3ccc(OC(F)(F)F)cc3c2N2CCC(N3CCC(O)CC3)CC2)cc1` [Compound 113], the cytotoxicity at 20 µM turned out to be 10%. Besides, the “48 hrs (morphology observations)” value (20 μm) is 0.

Regarding `CCCCCCCCCCCCCCOc1ccc(S(=O)(=O)c2cnc3ccc([S+](C)[O-])cc3c2N2CCC(N3CCN(CCO)CC3)CC2)cc1F` (stereo not shown) [Compound 365], under “20 μm”, the “48 hrs (morphology observations)” value is recorded as “*** (more than 50% but less than 100% of endothelial cells vesicularize in cell shape)” and the Cell death is listed as 20%.

As for `CNC(=O)c1ccc2ncc(S(=O)(=O)c3ccc(OC)cc3)c(NC)c2c1` [Compound 360], the cytotoxicity at 40 µM came out at 20%. Further, the “48 hrs (morphology observations)” value (40 μm) is 0.

Take `CNC(=O)c1ccc(C2CCN(c3c(S(=O)(=O)c4ccc(OC)cc4)cnc4cc(OC)c(OC)cc34)CC2)cc1` [Compound 310]: for the setting “40 μm”, the “48 hrs (morphology observations)” value is 0 and the Cell death is 10%.

As to `CCCCCCCCCCOc1ccc(S(=O)(=O)c2cnc3ccc([S+](C)[O-])cc3c2N2CCC(N3CCC(N4CCCCC4)CC3)CC2)cc1F` (stereo not shown) [Compound 290], the cytotoxicity at 10 µM amounted to 50%. For the same molecule, where the note is “10 μm”, the “48 hrs (morphology observations)” value is “*** (more than 50% but less than 100% of endothelial cells vesicularize in cell shape)”.

For `CCCCOc1ccc(S(=O)(=O)c2cnc3ccc(C(=O)OCC)cc3c2N2CCC(N3CCSCC3)CC2)cc1` [Compound 217], where the note is “40 μm”, the “48 hrs (morphology observations)” value turned out to be 0 and the Cell death was determined as 30%.

`CCCCCCCCCCCCOc1ccc(S(=O)(=O)c2cnc3ccc([S+](C)[O-])cc3c2N2CCC(N3CCC(N4CCCCC4)CC3)CC2)cc1F` (stereo not shown) [Compound 363]: under “20 μm”, the “48 hrs (morphology observations)” value is given as “*** (more than 50% but less than 100% of endothelial cells vesicularize in cell shape)” and the Cell death is 30%.

For `CCCCOc1ccc(S(=O)(=O)c2cnc3ccc(SC)cc3c2N2CCCN(C3CCSCC3)CC2)cc1` [Compound 358], the cytotoxicity at 40 µM was found to be 0%. Moreover, the “48 hrs (morphology observations)” value (40 μm) is 0.

In the case of `COc1ccc(S(=O)(=O)c2cnc3cc(OC)c(OC)cc3c2N2CCC(N3CCCC3CO)CC2)cc1` (stereo not shown) [Compound 322], under “40 μm”, the “48 hrs (morphology observations)” value is reported as 0 and the Cell death turned out to be 30%.

Take `COc1ccc(S(=O)(=O)c2cnc3cc(OC)c(OC)cc3c2N2CCC3C(COCCN3CC(C)C)C2)cc1` (stereo not shown) [Compound 324]: where the note is “40 μm”, the “48 hrs (morphology observations)” value was found to be 0 and the Cell death was 60%.

In the case of `COc1ccc(S(=O)(=O)c2cnc3ccc(S(C)(=O)=O)cc3c2NN2CCN(C)CC2)cc1` [Compound 228], where the note is “40 μm”, the “48 hrs (morphology observations)” value was determined as 0 and the Cell death was determined as 5%.

As for `CCCCOc1ccc(S(=O)(=O)c2cnc3ccc([S+](C)[O-])cc3c2N2CCC(N3CCN(c4ccc(F)cc4)CC3)CC2)cc1` (stereo not shown) [Compound 239], where the note is “40 μm”, the “48 hrs (morphology observations)” value turned out to be 0 and the Cell death was determined as 40%.

Take `CCCCCCCOc1ccc(S(=O)(=O)c2cnc3ccc(SC)cc3c2N2CCN(C3CCN(C)CC3)CC2)cc1` [Compound 273]: the cytotoxicity at 20 µM was 60%. For the setting “20 μm”, the “48 hrs (morphology observations)” value is listed as “*** (more than 50% but less than 100% of endothelial cells vesicularize in cell shape)”.

Turning to `CCOC(=O)c1ccc2ncc(S(=O)(=O)c3ccc(OC)cc3)c(N3CCC(N4CCN(C)CC4)CC3)c2c1` [Compound 171], where the note is “40 μm”, the “48 hrs (morphology observations)” value was 0 and the Cell death is on record as 40%.

The record behind these values is patent publication US20250230226A1, “PLXDC1/PLXDC2 ACTIVATORS AND THEIR USE IN THE TREATMENT OF BLOOD VESSEL DISORDERS” (THE REGENTS OF THE UNIVERSITY OF CALIFORNIA, priority 2019, published 2025).
